Where two headings read alike, the source gives them in different places.
Key:
OATP1A2 = target: T1, OATP1A2 (Homo sapiens, UniProt P46721); assay: Drug uptake in X. laevis oocytes injected with SLCO1A2; assay type: in vitro ADME; conditions: 1 µM (darunavir 3 µM), 18°C, 1hr, mean ± SD; for Drug uptake, OATP1A2: OATP1A2 cRNA injected oocytes; for Drug uptake, Water: water injected control oocytes (Table 1)
T1 sequence (P46721 1-670): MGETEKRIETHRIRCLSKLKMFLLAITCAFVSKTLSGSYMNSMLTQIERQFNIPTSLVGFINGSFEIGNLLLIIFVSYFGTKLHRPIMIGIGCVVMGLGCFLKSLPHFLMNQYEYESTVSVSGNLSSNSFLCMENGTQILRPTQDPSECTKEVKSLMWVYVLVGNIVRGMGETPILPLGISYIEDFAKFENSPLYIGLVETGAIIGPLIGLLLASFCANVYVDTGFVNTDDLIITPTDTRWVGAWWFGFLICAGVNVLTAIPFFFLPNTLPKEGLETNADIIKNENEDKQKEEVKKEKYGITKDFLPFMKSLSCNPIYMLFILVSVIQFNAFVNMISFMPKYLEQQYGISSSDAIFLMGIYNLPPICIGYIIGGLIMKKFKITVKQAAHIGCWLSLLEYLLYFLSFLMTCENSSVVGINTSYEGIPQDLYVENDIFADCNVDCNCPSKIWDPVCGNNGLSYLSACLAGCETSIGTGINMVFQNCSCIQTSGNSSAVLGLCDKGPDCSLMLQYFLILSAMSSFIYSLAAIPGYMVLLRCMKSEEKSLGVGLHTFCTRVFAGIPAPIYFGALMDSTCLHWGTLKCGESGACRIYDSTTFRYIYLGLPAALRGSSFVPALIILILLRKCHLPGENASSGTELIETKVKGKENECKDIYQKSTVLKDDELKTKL

OATP1B1 [1] = target: T2, OATP1B1 (Homo sapiens, UniProt Q9Y6L6); assay: Drug uptake in X. laevis oocytes injected with SLCO1B1; assay type: in vitro ADME; conditions: 1 µM (darunavir 3 µM), 18°C, 1hr, mean ± SD; for Drug uptake, OATP1B1: OATP1B1 cRNA injected oocytes; for Drug uptake, Water: water injected control oocytes (Table 2)
T2 sequence (Q9Y6L6 1-691): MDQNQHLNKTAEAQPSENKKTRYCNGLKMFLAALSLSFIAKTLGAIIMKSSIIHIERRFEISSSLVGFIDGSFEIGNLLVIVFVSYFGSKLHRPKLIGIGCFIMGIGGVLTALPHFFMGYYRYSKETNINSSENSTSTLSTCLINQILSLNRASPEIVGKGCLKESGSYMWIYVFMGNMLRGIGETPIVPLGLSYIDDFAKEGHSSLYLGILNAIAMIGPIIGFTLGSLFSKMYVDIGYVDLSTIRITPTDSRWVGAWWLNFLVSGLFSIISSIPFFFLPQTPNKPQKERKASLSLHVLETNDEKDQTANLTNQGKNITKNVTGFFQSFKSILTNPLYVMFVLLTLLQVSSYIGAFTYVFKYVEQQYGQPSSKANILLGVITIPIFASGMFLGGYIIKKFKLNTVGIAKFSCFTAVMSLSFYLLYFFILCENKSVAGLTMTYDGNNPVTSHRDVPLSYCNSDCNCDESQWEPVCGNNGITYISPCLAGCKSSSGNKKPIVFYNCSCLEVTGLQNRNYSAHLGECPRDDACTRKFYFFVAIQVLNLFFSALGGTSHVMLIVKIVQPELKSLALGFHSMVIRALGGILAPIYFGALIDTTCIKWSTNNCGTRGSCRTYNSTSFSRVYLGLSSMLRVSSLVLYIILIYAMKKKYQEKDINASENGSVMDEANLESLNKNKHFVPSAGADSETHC

OATP1B3 = target: T3, OATP1B3 (Homo sapiens, UniProt Q9NPD5); assay: Drug uptake in X. laevis oocytes injected with SLCO1B3; assay type: in vitro ADME; conditions: without human serum albumin, 1 µM (darunavir 3 µM, performed once), 18°C, 1hr, mean ± SD; for Drug uptake, OATP1B3: OATP1B3 cRNA injected oocytes; for Drug uptake, Water: water injected control oocytes (Table 3)
T3 sequence (Q9NPD5 1-702): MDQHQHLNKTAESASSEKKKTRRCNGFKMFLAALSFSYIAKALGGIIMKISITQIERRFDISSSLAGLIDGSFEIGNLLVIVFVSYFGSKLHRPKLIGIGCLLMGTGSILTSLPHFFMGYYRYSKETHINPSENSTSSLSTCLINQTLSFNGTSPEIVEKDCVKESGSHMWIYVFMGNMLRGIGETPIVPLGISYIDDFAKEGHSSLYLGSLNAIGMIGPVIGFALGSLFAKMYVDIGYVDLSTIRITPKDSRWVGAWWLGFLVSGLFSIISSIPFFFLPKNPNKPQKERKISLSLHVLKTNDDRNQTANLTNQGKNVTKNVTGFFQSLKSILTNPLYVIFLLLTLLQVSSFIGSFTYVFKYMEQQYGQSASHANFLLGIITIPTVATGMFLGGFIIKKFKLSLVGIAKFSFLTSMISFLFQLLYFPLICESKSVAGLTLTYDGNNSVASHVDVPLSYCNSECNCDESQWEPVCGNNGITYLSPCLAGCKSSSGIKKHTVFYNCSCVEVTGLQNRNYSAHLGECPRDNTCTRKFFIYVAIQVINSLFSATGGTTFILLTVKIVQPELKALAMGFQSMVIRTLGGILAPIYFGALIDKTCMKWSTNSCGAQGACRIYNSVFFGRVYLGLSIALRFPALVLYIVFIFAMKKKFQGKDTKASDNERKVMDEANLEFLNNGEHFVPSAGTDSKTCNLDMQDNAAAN

OATP1B1 [2] = target: T2, OATP1B1; conditions: HEK 293 cells stably transfected with SLCO1B1; cited from earlier work
[3] = assay type: in vivo, human
[4] = independent variable Age (Years)
[5] = independent variable Coadministered protease inhibitor
[6] = independent variable Male Gender
[7] = independent variable SLCO1A2 38T>C
[8] = independent variable SLCO1A2 516A>C
[9] = independent variable SLCO1B1 388A>G
[10] = independent variable SLCO1B1 521T>C
[11] = independent variable SLCO1B3 334T>G
[12] = independent variable Weight (per 10kg)
[13] = patients on lopinavir/ritonavir 400mg/100mg b.d., samples included in the analysis

CC(C)(C)NC(=O)[C@@H]1C[C@@H]2CCCC[C@@H]2CN1C[C@@H](O)[C@H](Cc1ccccc1)NC(=O)[C@H](CC(N)=O)NC(=O)c1ccc2ccccc2n1 [Saquinavir, saquinavir]
Drug uptake, OATP1A2 (OATP1A2; with 2% human serum albumin): 0.45 ± 0.05 pmol/oocyte | Drug uptake, OATP1A2 (OATP1A2; without human serum albumin): 2.16 ± 0.71 pmol/oocyte | Drug uptake, Water (OATP1A2; with 2% human serum albumin): 0.27 ± 0.03 pmol/oocyte | Drug uptake, Water (OATP1A2; without human serum albumin): 1.01 ± 0.21 pmol/oocyte | Drug uptake, OATP1B1 (OATP1B1 [1]; with 2% human serum albumin): 0.64 ± 0.23 pmol/oocyte | Drug uptake, OATP1B1 (OATP1B1 [1]; without human serum albumin): 1.78 ± 0.44 pmol/oocyte | Drug uptake, Water (OATP1B1 [1]; with 2% human serum albumin): 0.21 ± 0.06 pmol/oocyte | Drug uptake, Water (OATP1B1 [1]; without human serum albumin): 0.94 ± 0.26 pmol/oocyte | Drug uptake, OATP1B3 (OATP1B3): 2.17 ± 0.61 pmol/oocyte | Drug uptake, Water (OATP1B3): 1.62 ± 0.45 pmol/oocyte | Inhibition of bilirubin uptake through OATP1B1 (OATP1B1 [2]): inhibit bilirubin uptake

Cc1cccc(C)c1OCC(=O)N[C@@H](Cc1ccccc1)[C@@H](O)C[C@H](Cc1ccccc1)NC(=O)[C@H](C(C)C)N1CCCNC1=O [Lopinavir, lopinavir]
Drug uptake, OATP1A2 (OATP1A2; with 2% human serum albumin): 1.65 ± 0.59 pmol/oocyte | Drug uptake, OATP1A2 (OATP1A2; without human serum albumin): 4.07 ± 0.67 pmol/oocyte | Drug uptake, Water (OATP1A2; with 2% human serum albumin): 0.82 ± 0.24 pmol/oocyte | Drug uptake, Water (OATP1A2; without human serum albumin): 2.53 ± 0.36 pmol/oocyte | Drug uptake, OATP1B1 (OATP1B1 [1]; with 2% human serum albumin): 1.14 ± 0.41 pmol/oocyte | Drug uptake, OATP1B1 (OATP1B1 [1]; without human serum albumin): 4.31 ± 0.72 pmol/oocyte | Drug uptake, Water (OATP1B1 [1]; with 2% human serum albumin): 0.66 ± 0.22 pmol/oocyte | Drug uptake, Water (OATP1B1 [1]; without human serum albumin): 2.14 ± 0.43 pmol/oocyte | Drug uptake, OATP1B3 (OATP1B3): 2.30 ± 0.66 pmol/oocyte | Drug uptake, Water (OATP1B3): 1.69 ± 0.78 pmol/oocyte | lopinavir Cmin with a SNP located in intron 2 of the SLCO1B1 gene ([3]; in words): significantly lower | median plasma lopinavir Cmin, patients homozygous for the C allele at position 521 of SLCO1B1 compared to T homozygotes or heterozygotes ([3]; in words): significantly higher | Univariate effect size on lopinavir C2-6 [3, 4]: 6.8% | Univariate effect size on lopinavir Cmin [3, 4]: 1.1% | Univariate effect size on lopinavir C2-6 [3, 5]: −14.9% | Univariate effect size on lopinavir Cmin [3, 5]: −15.5% | Univariate effect size on lopinavir C2-6 [3, 6]: 4.2% | Univariate effect size on lopinavir Cmin [3, 6]: −5.5% | Univariate effect size on lopinavir C2-6 [3, 7]: 5.8% | Univariate effect size on lopinavir Cmin [3, 7]: 4.7% | Univariate effect size on lopinavir C2-6 [3, 8]: 5.4% | Univariate effect size on lopinavir Cmin [3, 8]: −1.0% | Univariate effect size on lopinavir C2-6 [3, 9]: −7.1% | Univariate effect size on lopinavir Cmin [3, 9]: −7.3% | Univariate effect size on lopinavir C2-6 [3, 10]: 12.8% | Univariate effect size on lopinavir Cmin [3, 10]: 12.2% | Multivariate effect size on lopinavir Cmin ([3]; independent variable SLCO1B1 Intron 2 (rs4149032)): 0.016 (−11) - % | Univariate effect size on lopinavir C2-6 ([3]; independent variable SLCO1B1 Intron 2 (rs4149032), C2-6 = 2-6h post dose): −4.6% | Univariate effect size on lopinavir Cmin ([3]; independent variable SLCO1B1 Intron 2 (rs4149032), Cmin = 10-14h post dose): −11.9% | Univariate effect size on lopinavir C2-6 [3, 11]: −0.2% | Univariate effect size on lopinavir Cmin [3, 11]: −1.8% | Multivariate effect size on lopinavir Cmin [3, 12]: −17.2% | Univariate effect size on lopinavir C2-6 [3, 12]: −13.7% | Univariate effect size on lopinavir Cmin [3, 12]: −17.4% | C2-6 higher for each variant allele of SLCO1B1 521T>C ([3]; multivariate model): 11.1% | C2-6 higher in patients receiving an additional protease inhibitor ([3]; multivariate model): 14.4% | Cmin higher in patients receiving an additional protease inhibitor ([3]; multivariate model): 15.4% | Cmin lower for each variant allele of SLCO1B1 rs4149032 ([3]; multivariate model): 11% | Cmin lower for every 10 Kg increase in body weight ([3]; multivariate model): 17.2% | median lopinavir concentration (plasma) [3, 13]: 5072 ng/mL | range of lopinavir concentration (plasma) [3, 13]: 114 to 24432 ng/mL
